According to ChEMBL document CHEMBL3046691, “Herbicidal pyridyl derivatives of aminomethylene-bisphosphonic acid inhibit plant glutamine synthetase” (J Agric Food Chem, 2004):
pIC50: −log10 of the molar value. Calls of active or inactive are those of the source. The calls are words filed in the database; no cut-off is given here.

Tests used:
[1] = system: Oryza sativa; assay: Effect on amino acid pool in Oryza sativa cv. Gigante vercellese (rice) cells assessed as asparagine content per gram freshweight of culture at 0.5 mM after 48 hr (reference value: 3.18 +/- 0.25 umol); format: functional
[2] = molecular target: T1, Glutamine synthetase (Oryza sativa) (UniProt Q01HZ7); assay: Reversible inhibition of Oryza sativa cv. Gigante vercellese (rice) glutamine synthetase assessed as inhibition of glutamine synthesis from glutamic acid at 20 uM after 50 min by biosynthetic assay
T1 sequence (whole entry): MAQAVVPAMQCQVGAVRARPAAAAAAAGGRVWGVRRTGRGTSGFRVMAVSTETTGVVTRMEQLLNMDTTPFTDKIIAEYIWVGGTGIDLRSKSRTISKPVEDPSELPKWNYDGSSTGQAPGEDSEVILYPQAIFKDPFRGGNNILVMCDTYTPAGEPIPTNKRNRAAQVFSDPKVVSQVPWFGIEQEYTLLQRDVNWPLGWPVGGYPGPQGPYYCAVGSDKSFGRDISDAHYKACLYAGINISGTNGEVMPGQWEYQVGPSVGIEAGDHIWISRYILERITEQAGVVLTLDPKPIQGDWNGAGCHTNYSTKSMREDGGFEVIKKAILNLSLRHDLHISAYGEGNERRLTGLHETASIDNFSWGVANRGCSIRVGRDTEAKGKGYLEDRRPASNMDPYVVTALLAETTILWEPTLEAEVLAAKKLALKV

[3] = molecular target: T1, Glutamine synthetase (Oryza sativa); assay: Inhibition of Oryza sativa cv. Gigante vercellese (rice) glutamine synthetase assessed as inhibition of glutamine synthesis from glutamic acid at 1 mM after 15 min by biosynthetic assay; details: values are per cent of control
[4] = system: Oryza sativa; assay: Effect on amino acid pool in Oryza sativa cv. Gigante vercellese (rice) cells assessed as glutamic acid content per gram freshweight of culture at 0.5 mM after 48 hr (reference value: 0.75 +/- 0.07 umol); format: functional
[5] = molecular target: T2, Glutamine synthetase (Oryza sativa, UniProt Q01HZ7); assay: (§1) Inhibition of Oryza sativa cv. Gigante vercellese (rice) glutamine synthetase after 30 min by hemibiosynthetic assay; details: read-out: I50
T2 sequence (Q01HZ7 whole entry): T1 sequence (whole entry)

[6] = molecular target: T2, Glutamine synthetase; assay: Inhibition of Oryza sativa cv. Gigante vercellese (rice) glutamine synthetase assessed as inhibition of glutamine synthesis from glutamic acid after 15 min by biosynthetic assay; details: read-out: I50
[7] = system: Oryza sativa; assay: Effect on amino acid pool in Oryza sativa cv. Gigante vercellese (rice) cells assessed as aspartic acid content per gram freshweight of culture at 0.5 mM after 48 hr (reference value: 1.10 +/- 0.26 umol); format: functional
[8] = system: Oryza sativa; assay: Effect on amino acid pool in Oryza sativa cv. Gigante vercellese (rice) cells assessed as serine content per gram freshweight of culture at 0.5 mM after 48 hr (reference value: 0.60 +/- 0.09 umol); format: functional
[9] = system: Oryza sativa; assay: Effect on amino acid pool in Oryza sativa cv. Gigante vercellese (rice) cells assessed as total amino acid content per gram fresh weight of culture at 0.5 mM after 48 hr (reference value: 24.65 +/- 0.97 umol); format: functional
[10] = molecular target: T1, Glutamine synthetase (Oryza sativa); assay: Inhibition of Oryza sativa cv. Gigante vercellese (rice) glutamine synthetase at 1 mM after 30 min by hemibiosynthetic assay; details: values are per cent of control
[11] = system: Oryza sativa; assay: Effect on amino acid pool in Oryza sativa cv. Gigante vercellese (rice) cells assessed as glutamine content per gram fresh weight of culture at 0.5 mM after 48 hr (reference value: 4.24 +/- 0.35 umol); format: functional
[12] = molecular target: T1, Glutamine synthetase (Oryza sativa); assay: Inhibition of Oryza sativa cv. Gigante vercellese (rice) glutamine synthetase at 1 mM by transferase assay; details: values are per cent of control
[13] = molecular target: T2, Glutamine synthetase; assay: (§2) Inhibition of Oryza sativa cv. Gigante vercellese (rice) glutamine synthetase by transferase assay; details: read-out: I50
[14] = molecular target: T1, Glutamine synthetase (Oryza sativa); assay: as §1
[15] = molecular target: T1, Glutamine synthetase (Oryza sativa); assay: as §2
[16] = molecular target: T1, Glutamine synthetase (Oryza sativa); assay: Reversible inhibition of Oryza sativa cv. Gigante vercellese (rice) glutamine synthetase assessed as inhibition of glutamine synthesis from glutamic acid at 10 uM after 50 min by biosynthetic assay

| Compound | I50 [14] | I50 [15] | Activity [1] | inhibition [2] | residual activity [3] | Activity [4] | pIC50 [5] | pIC50 [6] | Activity [7] | Activity [8] | Activity [9] | residual activity [10] | Activity [11] | residual activity [12] | pIC50 [13] | inhibition [16] |
| --- | --- | --- | --- | --- | --- | --- | --- | --- | --- | --- | --- | --- | --- | --- | --- | --- |
| O=P(O)(O)C(Nc1cc(Cl)cc(Cl)c1)P(=O)(O)O [(3,5-DICHLOROPHENYLAMINO)METHYLENEDIPHOSPHONIC ACID] | – | – | 0.49 umol/g fresh weight | Active | 3.1% | 3.19 µmol/g fresh weight | 4.06 | 4.48 | 0.57 umol/g fresh weight | 1.26 umol/g fresh weight | 28.61 umol/g fresh weight | 13.1% | 2.72 umol/g fresh weight | 38.1% | 6.40 | – |
| O=C(O)c1cccnc1NC(P(=O)(O)O)P(=O)(O)O [2-(DIPHOSPHONOMETHYLAMINO)NICOTINIC ACID] | – | – | – | – | 27.2% | – | 3.20 | 3.48 | – | – | – | 40.8% | – | 61% | 5.84 | – |
| O=P(O)(O)C(Nc1ncccn1)P(=O)(O)O | – | – | – | – | 42.3% | – | – | – | – | – | – | 64.3% | – | 76.8% | – | – |
| Cc1cccc(NC(P(=O)(O)O)P(=O)(O)O)n1 | – | – | – | – | 114% | – | – | – | – | – | – | 74.4% | – | 25.9% | – | – |
| Cc1ccccc1CNC(P(=O)(O)O)P(=O)(O)O | – | – | – | – | 101% | – | – | – | – | – | – | 70.5% | – | 50.8% | – | – |
| O=[N+]([O-])c1cccc(NC(P(=O)(O)O)P(=O)(O)O)c1 [(3-NITROPHENYLAMINO)METHYLENEDIPHOSPHONIC ACID] | – | – | – | – | 97.6% | – | 2.79 | 3.13 | – | – | – | 101% | – | 95.6% | 5.70 | – |
| O=P(O)(O)C(Nc1ccncc1)P(=O)(O)O | – | – | 1.14 umol/g fresh weight | – | 119% | 4.24 µmol/g fresh weight | – | – | 1.21 umol/g fresh weight | 2.22 umol/g fresh weight | 32.64 umol/g fresh weight | 97.2% | 4.79 umol/g fresh weight | 84.9% | – | – |
| Cc1ccc(NC(P(=O)(O)O)P(=O)(O)O)cc1 [(P-TOLYLAMINO)METHYLENEDIPHOSPHONIC ACID] | – | inactive | 0.61 umol/g fresh weight | – | 14.3% | 2.97 µmol/g fresh weight | 3.11 | 3.77 | 0.76 umol/g fresh weight | 0.6 umol/g fresh weight | 22.91 umol/g fresh weight | 57.6% | 2.95 umol/g fresh weight | 93.8% | – | – |
| O=P(O)(O)C(NCc1ccccn1)P(=O)(O)O | – | – | 0.63 umol/g fresh weight | – | 8.8% | 4.78 µmol/g fresh weight | 3.99 | 4.19 | 1.66 umol/g fresh weight | 1.53 umol/g fresh weight | 26.94 umol/g fresh weight | 16.1% | 3.25 umol/g fresh weight | 54.6% | 2.95 | – |
| O=P(O)(O)C(NCc1ccccc1)P(=O)(O)O | – | – | – | – | 109% | – | – | – | – | – | – | 89.1% | – | 102% | – | – |
| CP(=O)(O)CC[C@H](N)C(=O)O [PHOSPHINOTHRICIN] | – | – | – | – | 2% | – | 4.31 | 4.36 | – | – | – | 9.9% | – | 25.7% | 3.76 | inactive |
| O=P(O)(O)C(Nc1ccccn1)P(=O)(O)O | – | – | – | – | 37.6% | – | 3.67 | 3.61 | – | – | – | 30.2% | – | 60.1% | 2.98 | – |
| O=P(O)(O)C(NC1CCCCC1)P(=O)(O)O [(CYCLOHEXYLAMINO)METHYLENEDIPHOSPHONIC ACID] | – | – | – | – | 50.5% | – | 3.34 | 2.95 | – | – | – | 32.7% | – | 46.1% | 3.04 | – |
| NC(P(=O)(O)O)P(=O)(O)O | – | – | – | – | 119% | – | – | – | – | – | – | 81.2% | – | 96.4% | – | – |
| O=P(O)(O)C(Nc1ccc(Cl)cn1)P(=O)(O)O | – | – | – | – | 13.9% | – | 4.02 | 4.16 | – | – | – | 17.5% | – | 52.8% | 2.98 | – |
| O=P(O)(O)C(Nc1ccccc1)P(=O)(O)O | – | – | – | – | 108% | – | – | – | – | – | – | 92% | – | 44.3% | – | – |

Second part, led by results:

| I50 [14] | I50 [15] | Compound | Activity [1] | inhibition [2] | residual activity [3] | Activity [4] | pIC50 [5] | pIC50 [6] | Activity [7] | Activity [8] | Activity [9] | residual activity [10] | Activity [11] | residual activity [12] | pIC50 [13] | inhibition [16] |
| --- | --- | --- | --- | --- | --- | --- | --- | --- | --- | --- | --- | --- | --- | --- | --- | --- |
| inactive | inactive | O=C(O)c1cccc(NC(P(=O)(O)O)P(=O)(O)O)c1 [3-(DIPHOSPHONOMETHYLAMINO)BENZOIC ACID] | – | – | 62.5% | – | – | 2.74 | – | – | – | 99% | – | 104% | – | – |
| – | inactive | O=P(O)(O)C(NCCc1ccc(O)cc1)P(=O)(O)O [(4-HYDROXYPHENETHYLAMINO)METHYLENEDIPHOSPHONIC ACID] | – | – | 72.6% | – | 3.16 | 2.35 | – | – | – | 36.9% | – | 98.4% | – | – |
